pIC50: −log10 of the molar value.
System: Plasmodium berghei
Test: Luciferase/luciferin-expressing antifolate-resistant parasites were used to infect a culture of HepG2 cells that were pre-incubated with compounds. Infected hepatocytes emit light due to the luciferase reaction. Assay results are presented as the percent inhibition of light emission compared to control. […]
Type: functional
Details: sporozoite; for IC90: read-out: LUCIFERASE INFECTION ASSAY - IC90

For Cc1cc2ccccn2c1C(=O)c1ccccc1Br, the pIC50 (HEPG2TOX_HILL_SLOPE 6.22, HEPG2TOX_R_SQUARED 0.365, PBLUC_HILL_SLOPE 4.01, PBLUC_R_SQUARED 0.105, read-out: LUCIFERASE INFECTION ASSAY - IC50) was 5.01 and the IC90 was over 10 µM.
For COc1ccccc1N(CC(=O)NCC12CC3CC(CC(C3)C1)C2)S(=O)(=O)c1ccccc1, the pIC50 (HEPG2TOX_HILL_SLOPE 6.27, HEPG2TOX_R_SQUARED 0.869, read-out: LUCIFERASE INFECTION ASSAY - IC50) was under 5.00 and the IC90 was over 10 µM.
Molecule COc1ccc(NC(=O)NCC(=O)c2cc(C)n(-c3ccc(C)c(C)c3)c2C)cc1 has a pIC50 (HEPG2TOX_HILL_SLOPE 6.34, HEPG2TOX_R_SQUARED 0.826, PBLUC_HILL_SLOPE 22.8, PBLUC_R_SQUARED 0.569, read-out: LUCIFERASE INFECTION ASSAY - IC50) of 5.44 and an IC90 of 3.99 µM.
CC(=O)c1ccc(-c2ccc(C(=O)N3CCC(c4nc5ccccc5o4)CC3)o2)cc1 gave a pIC50 (HEPG2TOX_HILL_SLOPE 6.21, HEPG2TOX_R_SQUARED 0.873, read-out: LUCIFERASE INFECTION ASSAY - IC50) of under 5.00 and an IC90 of over 10 µM.
For C=CCSc1nnc(-c2ccc(C(C)(C)C)cc2)n1-c1ccc(C(C)C)cc1, the pIC50 (HEPG2TOX_HILL_SLOPE 6.39, HEPG2TOX_R_SQUARED 0.425, PBLUC_HILL_SLOPE 3, PBLUC_R_SQUARED 0.616, read-out: LUCIFERASE INFECTION ASSAY - IC50) was under 5.07 and the IC90 was over 8.43 µM.
Work on Cc1ccc(-c2noc(CCC(=O)N3CCN(C/C=C/c4ccccc4)CC3)n2)cc1 yielded a pIC50 (HEPG2TOX_HILL_SLOPE 6.22, HEPG2TOX_R_SQUARED 0.551, PBLUC_HILL_SLOPE 3.17, PBLUC_R_SQUARED 0.265, read-out: LUCIFERASE INFECTION ASSAY - IC50) of 5.29 and an IC90 of over 10 µM.
CCOc1ccccc1N(C(=O)C1CC=CCC1)c1nc2ccccc2s1 (configuration not stated) was tested, and the pIC50 (HEPG2TOX_HILL_SLOPE 6.4, HEPG2TOX_R_SQUARED 0.335, PBLUC_HILL_SLOPE 2.71, PBLUC_R_SQUARED 0.0983, read-out: LUCIFERASE INFECTION ASSAY - IC50) was 5.11 and the IC90 was over 10 µM.
For COc1cccc(-c2cnn3ccc(Nc4cc(OC)c(OC)c(OC)c4)nc23)c1, the pIC50 (HEPG2TOX_HILL_SLOPE 6.32, HEPG2TOX_R_SQUARED 0.972, PBLUC_HILL_SLOPE 10.3, PBLUC_R_SQUARED 0.636, read-out: LUCIFERASE INFECTION ASSAY - IC50) was 5.57 and the IC90 was 3.34 µM.
O=C(Nc1ccnn1Cc1ccc(Cl)cc1Cl)c1cccc(NC(=O)c2cccs2)c1 gave a pIC50 (HEPG2TOX_HILL_SLOPE 6.41, HEPG2TOX_R_SQUARED 0.384, PBLUC_HILL_SLOPE 10.4, PBLUC_R_SQUARED 0.292, read-out: LUCIFERASE INFECTION ASSAY - IC50) of 5.06 and an IC90 of over 10 µM.
Cc1cc(SCC(=O)NC(C)C2CC3CCC2C3)n2c(nc3ccccc32)c1C#N (configuration not stated) showed a pIC50 (HEPG2TOX_HILL_SLOPE 6.37, HEPG2TOX_R_SQUARED 0.94, PBLUC_HILL_SLOPE 33.9, PBLUC_R_SQUARED 0.41, read-out: LUCIFERASE INFECTION ASSAY - IC50) of 5.48 and an IC90 of 3.54 µM.
Molecule COc1ccc(N2CCN(CCCNc3ncnc4cc(Cl)ccc34)CC2)cc1 has a pIC50 (HEPG2TOX_HILL_SLOPE 6.44, HEPG2TOX_R_SQUARED 0.109, PBLUC_HILL_SLOPE 114, 20.9, PBLUC_R_SQUARED 0.138, 0.588, read-out: LUCIFERASE INFECTION ASSAY - IC50) of 5.48 and an IC90 of 3.54 µM.
In the case of CC(C)C(CNc1ncnc2cc(Cl)ccc12)N1CCN(C)CC1 (configuration not stated), the pIC50 (HEPG2TOX_HILL_SLOPE 6.21, HEPG2TOX_R_SQUARED 0.178, read-out: LUCIFERASE INFECTION ASSAY - IC50) was under 5.00 and the IC90 was over 10 µM.
COc1ccc(Cl)c(Nc2nc(-c3c(-c4ccc(Cl)cc4Cl)noc3C)cs2)c1 showed a pIC50 (HEPG2TOX_HILL_SLOPE 6.31, HEPG2TOX_R_SQUARED 0.301, PBLUC_HILL_SLOPE 9.51, PBLUC_R_SQUARED 0.295, read-out: LUCIFERASE INFECTION ASSAY - IC50) of 5.20 and an IC90 of over 7.07 µM.
For Cc1ccc(-c2nnc3n2CCCCC3)cc1NC(=O)c1ccc([N+](=O)[O-])o1, the pIC50 (HEPG2TOX_HILL_SLOPE 6.11, HEPG2TOX_R_SQUARED 0.316, PBLUC_HILL_SLOPE 1.35, PBLUC_R_SQUARED 0.486, read-out: LUCIFERASE INFECTION ASSAY - IC50) was 5.21 and the IC90 was over 10 µM.
COc1ccc(-c2cnn3ccc(Nc4ccc(OC)nc4)nc23)c(OC)c1 gave a pIC50 (HEPG2TOX_HILL_SLOPE 6.09, HEPG2TOX_R_SQUARED 0.857, PBLUC_HILL_SLOPE 12.3, PBLUC_R_SQUARED 0.558, read-out: LUCIFERASE INFECTION ASSAY - IC50) of 5.52 and an IC90 of 3.63 µM.
Work on Cc1ccc(S(=O)(=O)N2CCN(CC(=O)N3N=C4/C(=C/c5cccs5)CCCC4C3c3cccs3)CC2)cc1 (configuration not stated) yielded a pIC50 (HEPG2TOX_HILL_SLOPE 6.4, HEPG2TOX_R_SQUARED 0.688, PBLUC_HILL_SLOPE 11.3, PBLUC_R_SQUARED 0.553, read-out: LUCIFERASE INFECTION ASSAY - IC50) of 5.44 and an IC90 of 4.41 µM.
O=C(Nc1cccc(Cl)c1)Nc1ccccc1N1CCCC1 showed a pIC50 (HEPG2TOX_HILL_SLOPE 6.22, HEPG2TOX_R_SQUARED 0.342, PBLUC_HILL_SLOPE 2.56, PBLUC_R_SQUARED 0.455, read-out: LUCIFERASE INFECTION ASSAY - IC50) of 5.16 and an IC90 of over 10.4 µM.
In the case of O=C1N/C(=N\C2CCCC2)S/C1=C\c1ccc2c(c1)OCCO2, the pIC50 (HEPG2TOX_HILL_SLOPE 6.25, HEPG2TOX_R_SQUARED 0.845, PBLUC_HILL_SLOPE 2.64, PBLUC_R_SQUARED 0.759, read-out: LUCIFERASE INFECTION ASSAY - IC50) was 5.47 and the IC90 was 7.77 µM.
In the case of O=C1N(Cc2ccccn2)C(=O)C2(CCN(Cc3cc4ccccc4o3)CC2)N1CCc1ccccc1, the pIC50 (HEPG2TOX_HILL_SLOPE 6.35, HEPG2TOX_R_SQUARED 0.629, PBLUC_HILL_SLOPE 2.7, PBLUC_R_SQUARED 0.846, read-out: LUCIFERASE INFECTION ASSAY - IC50) was 5.36 and the IC90 was over 6.67 µM.
In the case of O=c1[nH][nH]c(-c2ccccc2)c1C=NCc1cccc(C(F)(F)F)c1, the pIC50 (HEPG2TOX_HILL_SLOPE 6.09, HEPG2TOX_R_SQUARED 0.916, PBLUC_HILL_SLOPE 3.54, PBLUC_R_SQUARED 0.303, read-out: LUCIFERASE INFECTION ASSAY - IC50) was 5.12 and the IC90 was over 9.56 µM.
O=C(NNC(=S)NC(=O)c1cn(-c2ccccc2)nc1-c1ccc(Br)cc1)c1ccncc1 was tested, and the pIC50 (HEPG2TOX_HILL_SLOPE 6.43, HEPG2TOX_R_SQUARED 0.426, PBLUC_HILL_SLOPE 13.5, PBLUC_R_SQUARED 0.624, read-out: LUCIFERASE INFECTION ASSAY - IC50) was 5.53 and the IC90 was 3.48 µM.
Work on CCn1c(NC(=O)Cc2csc(-n3c(C)ccc3C)n2)nc2ccccc21 yielded a pIC50 (HEPG2TOX_HILL_SLOPE 6.15, HEPG2TOX_R_SQUARED 0.156, PBLUC_HILL_SLOPE 14.1, PBLUC_R_SQUARED 0.172, read-out: LUCIFERASE INFECTION ASSAY - IC50) of 5.05 and an IC90 of over 10 µM.
Fc1ccc(Nc2nccc3nc(-c4ccccc4Cl)[nH]c23)cc1Cl was tested, and the pIC50 (HEPG2TOX_HILL_SLOPE 6.23, HEPG2TOX_R_SQUARED 0.841, PBLUC_HILL_SLOPE 1.89, PBLUC_R_SQUARED 0.243, read-out: LUCIFERASE INFECTION ASSAY - IC50) was 5.25 and the IC90 was over 10 µM.
COc1cc(/C=C(/C(=O)OCC(=O)NC2CCCCC2C)c2ccc(-c3ccccc3)cc2)cc(OC)c1OC (configuration not stated) gave a pIC50 (HEPG2TOX_HILL_SLOPE 6.06, HEPG2TOX_R_SQUARED 0.736, PBLUC_HILL_SLOPE 16.1, PBLUC_R_SQUARED 0.664, read-out: LUCIFERASE INFECTION ASSAY - IC50) of 5.48 and an IC90 of 3.8 µM.
In the case of CCN1CCN(c2nc(-c3ccccc3)nc3sc(-c4ccccc4)cc23)CC1, the pIC50 (HEPG2TOX_HILL_SLOPE 6.07, HEPG2TOX_R_SQUARED 0.861, PBLUC_HILL_SLOPE 3.24, PBLUC_R_SQUARED 0.199, read-out: LUCIFERASE INFECTION ASSAY - IC50) was 5.16 and the IC90 was over 10 µM.
Cc1nnc(Sc2ccc([N+](=O)[O-])c(Sc3nnc(C)s3)n2)s1 was tested, and the pIC50 (HEPG2TOX_HILL_SLOPE 6.33, HEPG2TOX_R_SQUARED 0.72, PBLUC_HILL_SLOPE 8.1, PBLUC_R_SQUARED 0.222, read-out: LUCIFERASE INFECTION ASSAY - IC50) was under 5.07 and the IC90 was over 8.58 µM.
With CC(C)(C)c1csc(Cc2ccc(-c3csnn3)cc2)n1 the pIC50 (HEPG2TOX_HILL_SLOPE 6.43, HEPG2TOX_R_SQUARED 0.485, PBLUC_HILL_SLOPE 2.92, PBLUC_R_SQUARED 0.738, read-out: LUCIFERASE INFECTION ASSAY - IC50) was 5.39 and the IC90 was 8.68 µM.
Work on NC(=NC(=S)Nc1cc(Cl)ccc1Cl)c1ccccc1 yielded a pIC50 (HEPG2TOX_HILL_SLOPE 6.22, HEPG2TOX_R_SQUARED 0.375, read-out: LUCIFERASE INFECTION ASSAY - IC50) of under 4.99 and an IC90 of over 10.2 µM.
CCCc1cc(=O)n2nc(Cc3ccccc3)c(-c3ccccc3)c2[nH]1 gave a pIC50 (HEPG2TOX_HILL_SLOPE 6.09, HEPG2TOX_R_SQUARED 0.391, read-out: LUCIFERASE INFECTION ASSAY - IC50) of under 5.02 and an IC90 of over 9.61 µM.
With CNC(=O)c1ccc(CN(Cc2ccco2)c2nc(C(F)(F)F)nc3ccccc23)cc1 the pIC50 (HEPG2TOX_HILL_SLOPE 6.45, HEPG2TOX_R_SQUARED 0.103, PBLUC_HILL_SLOPE 3.77, PBLUC_R_SQUARED 0.847, read-out: LUCIFERASE INFECTION ASSAY - IC50) was 5.70 and the IC90 was 3.56 µM.
COCc1cccc(-c2cc(-c3cc4ccccc4s3)cnc2N)c1 gave a pIC50 (HEPG2TOX_HILL_SLOPE 6.43, HEPG2TOX_R_SQUARED 0.192, PBLUC_HILL_SLOPE 1.27, PBLUC_R_SQUARED 0.564, read-out: LUCIFERASE INFECTION ASSAY - IC50) of 5.24 and an IC90 of over 9.53 µM.

— ChEMBL document CHEMBL4483862, “Open-source discovery of chemical leads for next-generation chemoprotective antimalarials” (2018)
